# Test results as given in patent publication US20260158074A1, “A Cell Surface Marker Signature for Arrhythmogenic Pluripotent Stem Cell-Derived Cardiomyocytes” (Western Sydney Local Health District, priority 2022, published 2026).
# Tests used:
# [1] = test system: hPSC SCVI8; test: DEAB-treated cardiomyocyte differentiation, RT-PCR at day 14; assay type: cell-based, human; conditions: DEAB 1 nM-100 μM, day 3 to 7 or day 5 to 7
# Experimental: hPSC SCVI8 were cultured in Matrigel® (Corning, Cat. No. 354277) coated petri dishes in complete mTeSR™ Plus basal medium (StemCell Technologies, Cat. No. 100-0276) supplemented with 20% (v/v) mTeSR™ Plus 5× supplement (StemCell Technologies) and 0.5% (v/v) streptomycin and penicillin (ThermoFisher, Cat. No. 15140163) at 37° C. in 5% CO2. Media was changed daily and cells passaged when confluency reached approximately 80%.
# Cardiomyocyte differentiation was achieved using small-molecule modulators of canonical Wnt signalling as described by Lian et al. (Lian et al. […]; 8(1):162-175), but with the addition of 1 nM, 1 μM or 100 μM 4-diethylaminobenzaldehyde (DEAB, Sigma Merck, Cat. No. D86256) at either day 3 or 5 of differentiation (FIG. 9a.). In brief, hPSC SCVI8 cells from confluent dishes were washed once with Dulbeco's Phosphate Buffered Saline (DPBS) without calcium and magnesium (Lonza, Cat. No. 17-512F), and harvested with TrypLE™ Express Enzyme (ThermoFisher, Cat. No. 12604021) and seeded at a concentration of 3.75×10^5 cells/mL in Matrigel® coated 12-well plates at a volume of 2 mL of complete mTeSR Plus basal medium and 10 μM Y-27632 (RHO/ROCK) inhibitor (StemCell Technologies, Cat. No. 072304). At day 0 of differentiation, cells were washed once using DPBS and transferred to mesoderm induction media that consisted of 6 μM CHIR99021 (GSK3 inhibitor, Tocris, Cat. No. 4423) in complete Roswell Park Memorial Institute (RPMI) 1640 medium, no glutamine (ThermoFisher, Cat. No. 21870092) supplemented with 2% (v/v) B-27 supplement, minus insulin (ThermoFisher, Cat. No. A1895601), 0.5% (v/v) streptomycin and penicillin and 1% (v/v) GlutaMAX™ supplement (ThermoFisher, Cat. No. 35050061). At day 1, CHIR99021 was removed, and cells maintained in complete RPMI minus insulin. At day 3, cells were transferred to cardiac induction media that consisted of 5 μM IWP-2 (Tocris, Cat. No. 3533) in complete RPMI minus insulin and was removed at day 5. At day 7 of differentiation, cells were maintained in complete RPMI supplemented with 2% (v/v) B-27™ Supplement (50×) (ThermoFisher, Cat. No. 17504-001), 0.5% (v/v) streptomycin and penicillin and 1% (v/v) GlutaMAX™ supplement. The media was changed every 2-3 days. Cells were harvested at day 14 for quantitative real-time polymerase chain reaction (RT-PCR).
# Total cellular RNA was extracted using the Isolate II RNA Mini Kit (Bioline, Cat. No. BIO-52073) as per the manufacturer's instructions. Reverse transcription was performed with M-MLV Reverse Transcriptase (Promega, Cat. No. M1701) following the manufacturer's protocol. mRNA gene expression was assessed by qPCR using SensiFAST™ SYBR® No-ROX Kit (Meridian Bioscience, Cat. No. BIO-98050) on the Bio-Rad CFX384 Real-Time PCR detection system, with the following PCR conditions: 95° C. for 2 min and 40 cycles of 95° C. for 5 s, 60° C. for 10 s and 72° C. for 15 s, followed by melt curve analysis. All primers used for detection of mRNA expression are outline in Table 3. All data was normalised to the reference gene 18S and normalised to control cells (non-treated PSC-CM).
# [2] = test system: PSC-CMs cultured in monolayer; test: In-vitro spontaneous beat rate of PSC-CMs under anti-arrhythmic drugs; assay type: cell-based, human; conditions: 0-100 μM drug concentrations
# Description: FIG. 3. […] A further 2 animals underwent sham infarction and vehicle injection. (b) Representative CMR reconstruction (created with ADAS 3D) merged with epicardial voltage map, used to choose, and annotate border and infarct zone injection sites (black circles). (c) Plot depicting the percentage of time per day each cell (red), cell and drug (blue), or vehicle (green) recipient spent in ventricular arrhythmia over course of study protocol. […] (f) Dose-dependent suppression of PSC-CM contraction rate using amiodarone (dark purple, square) and ivabradine (light purple, circle) in vitro (0-100 μM drug concentrations). […] (h) Telemetry strip from representative cell and anti-arrhythmic recipient showing predominantly sinus rhythm with occasional ventricular ectopic beat. (i-k) Arrythmia parameters from day 0 to day 28 for each subject, grouped by treatment allocation (presented as mean±SEM). […]
# Given the automatic mechanism for PSC-CM EAs, the inventors hypothesised that suppressing the rate of graft automaticity below that of the native sinus node would reduce arrhythmia burden. […] To further interrogate this finding the beat rates of sinus rhythm and EAs for each animal were analysed.
# [3] = test system: H9 human embryonic stem cell line containing a gCaMP6f reporter, differentiating aggregates; test: Bioreactor PSC-CM differentiation with retinoic acid signalling activated: cTnT flow cytometry, qPCR, scRNA-seq, beat frequency; assay type: cell-based
# Experimental: The H9 cell line containing the gCaMP6f fluorescent calcium reporter was used for all experiments (provided by University of Queensland StemCore facility). Each production run was started from a frozen working cell bank (WCB) cryovial, which was expanded for 8 days in monolayer on matrigel (Corning) using the commercially available medium mTeSR™ Plus (Stem Cell Technologies) (FIG. 1). On Day −3, cells were inoculated at a density of 2.5-3.0×10^5 cells/mL in mTeSR 3D supplemented with 10 μM Y-27632 (TOCRIS Bioscience) and 10 ug/mL of a thermoresponsive polymer pNIPAM conjugated to fibronectin (Chen, X. et al. Tissue Eng Part C Methods 24, 146-157) to form aggregates. A DASbox (Eppendorf) stirred tank bioreactor system was used for aggregate formation and suspensions controlled at 37.2° C., pH 7.2, and 30% DO. At day −1, rapamycin (Merck) was added to a final concentration of 5 nM to enhance survival during differentiation. […]
# The expression of cTnT was measured on a Cytoflex Flow Cytometer (Beckman Coulter). […]
# Reactions were performed in technical triplicate. Quantitative PCR was performed on the BioRad CFX96 Real-Time PCR Detection System with standard cycling parameters described in the master mix protocol. […] Fold difference in expression was calculated using the comparative CT formula, using GAPDH cDNA from a reference sample. […]
smiles,measurement,setting,value
"CCN(CC)c1ccc(C=O)cc1 [DEAB, 4-diethylaminobenzaldehyde]",expression level of IRX4,[1]; RT-PCR day 14,no significant difference
same,expression level of KCNJ3,[1]; RT-PCR day 14,significant lower expression levels
same,expression level of MYH7,[1]; RT-PCR day 14,no significant difference
same,expression level of MYL2v,[1]; RT-PCR day 14,no significant difference
same,expression level of SHOX2,[1]; RT-PCR day 14,significant lower expression levels
same,expression level of cTnT,"[1]; RT-PCR day 14, relative to 18S, versus non-treated PSC-CM",no significant difference
CCCCc1oc2ccccc2c1C(=O)c1cc(I)c(OCCN(CC)CC)c(I)c1 [amiodarone],spontaneous beat rate of PSC-CMs,[2],dose-dependent reduction in the spontaneous beat rate
COc1cc2c(cc1OC)CC(=O)N(CCCN(C)C[C@H]1Cc3cc(OC)c(OC)cc31)CC2 [Ivabradine],spontaneous beat rate of PSC-CMs,[2],dose-dependent reduction in the spontaneous beat rate
"CC1=C(/C=C/C(C)=C/C=C/C(C)=C/C(=O)O)C(C)(C)CCC1 [Retinoic acid, retinoic acid]",cTnT expression,"[3]; RA signalling activated day 2 to day 6, n=12, control differentiations in parallel 83.6±7.0%",62.4±33.1%
same,rate of spontaneous contraction of aggregates,"[3]; day 15 before aggregate dissociation, n=6, control 14.2±5.5 b.p.m",50.7±16.8 b.p.m
